Assay results published in the NIST ThermoML archive (doi:10.1016/j.jct.2005.07.019).
± gives the expanded uncertainty stated by the source.

Test: mn = molality of the nth substance listed, in mol/kg
Conditions: 350 kPa, Liquid, Extra sensitive DSC

N[C@H](CO)C(=O)O [(R)-(-)-serine] + O
apparent molar heat capacity [J/K/mol]
Conditions	m1 = 0.0151	m1 = 0.0301	m1 = 0.0501	m1 = 0.08	m1 = 0.1251	m1 = 0.2505	m1 = 0.35
278.15 K	54.5 ± 51	55.7 ± 26	56.5 ± 16	58.3 ± 9.8	60.7 ± 6.3	66.74 ± 3.4	71.19 ± 2.6
283.15 K	75.2 ± 52	76.1 ± 26	76.8 ± 16	78.4 ± 9.9	80.6 ± 6.4	85.06 ± 3.4	89.13 ± 2.6
288.15 K	91.1 ± 52	92.2 ± 26	92.8 ± 16	94.4 ± 9.9	96.3 ± 6.4	100.09 ± 3.4	103.68 ± 2.7
293.15 K	104.3 ± 52	105.4 ± 26	106.1 ± 16	107.6 ± 9.9	109.2 ± 6.5	112.47 ± 3.5	115.73 ± 2.7
298.15 K	114.8 ± 52	116.1 ± 26	116.8 ± 16	118.3 ± 10	119.8 ± 6.5	122.69 ± 3.5	125.65 ± 2.7
303.15 K	123.8 ± 52	125.6 ± 26	126.3 ± 16	127.5 ± 10	128.8 ± 6.5	131.45 ± 3.5	134.16 ± 2.7
308.15 K	132.3 ± 52	133.5 ± 26	134.1 ± 16	135.4 ± 10	136.6 ± 6.5	138.97 ± 3.6	141.5 ± 2.8
313.15 K	139.7 ± 52	140.5 ± 26	141 ± 16	142.1 ± 10	143.3 ± 6.6	145.58 ± 3.6	147.86 ± 2.8
318.15 K	145.3 ± 52	146.2 ± 26	146.7 ± 16	147.9 ± 10	149 ± 6.7	151.1 ± 3.7	153.28 ± 2.9
323.15 K	150 ± 52	151.2 ± 26	151.8 ± 16	153 ± 10	154.1 ± 6.7	156.06 ± 3.7	158.13 ± 2.9
328.15 K	155 ± 52	156 ± 26	156.5 ± 16	157.5 ± 10	158.6 ± 6.8	160.5 ± 3.7	162.4 ± 2.9
333.15 K	159 ± 52	160.2 ± 27	160.7 ± 16	161.7 ± 10	162.6 ± 6.9	164.4 ± 3.9	166.3 ± 3
338.15 K	163 ± 53	163.7 ± 27	164.2 ± 16	165.2 ± 11	166.2 ± 7	167.9 ± 3.9	169.76 ± 3
343.15 K	166 ± 54	167 ± 27	167.4 ± 17	168.3 ± 11	169.2 ± 7.1	170.9 ± 4	172.7 ± 3.1
348.15 K	169 ± 54	170.1 ± 28	170.4 ± 17	171.1 ± 11	172 ± 7.2	173.7 ± 4	175.4 ± 3.1
353.15 K	171 ± 55	172.2 ± 28	172.6 ± 17	173.6 ± 11	174.4 ± 7.3	176.1 ± 4	177.8 ± 3.1
358.15 K	174 ± 56	174.3 ± 28	174.9 ± 17	175.8 ± 11	176.7 ± 7.4	178.3 ± 4.1	180 ± 3.3
363.15 K	176 ± 57	176.2 ± 29	176.7 ± 18	177.7 ± 11	178.5 ± 7.5	180.2 ± 4.1	181.8 ± 3.3
368.15 K	177 ± 57	177.8 ± 29	178.2 ± 18	179.2 ± 12	180.1 ± 7.6	181.7 ± 4.3	183.4 ± 3.3
373.15 K	178 ± 58	179.3 ± 30	179.6 ± 18	180.5 ± 12	181.4 ± 7.7	183.1 ± 4.3	184.7 ± 3.4
378.15 K	180 ± 59	180.4 ± 30	180.7 ± 18	181.6 ± 12	182.5 ± 7.8	184.2 ± 4.4	185.8 ± 3.4
383.15 K	181 ± 61	181 ± 31	181.4 ± 19	182.4 ± 12	183.3 ± 8	185.2 ± 4.4	186.8 ± 3.4
388.15 K	181 ± 62	182 ± 31	182.1 ± 19	183 ± 12	184 ± 8.1	186 ± 4.5	187.4 ± 3.6
393.15 K	182 ± 62	182 ± 31	182.5 ± 19	183.5 ± 12	184.4 ± 8.2	186.5 ± 4.5	187.9 ± 3.6
